# Legend:
# [1] = Toxicity in Mus musculus ddY (mouse) assessed as mortality at 300 mg/kg, ip after 5 days; type: organism-based; design: dose 300 mg/kg, route intraperitoneal; conditions: in vivo
# [2] = Toxicity in Mus musculus ddY (mouse) assessed as mortality at 275 mg/kg, ip after 6 days; type: organism-based; design: dose 275 mg/kg, route intraperitoneal; conditions: in vivo
# [3] = Toxicity in Mus musculus ddY (mouse) assessed as mortality at 300 mg/kg, ip after 1 day; type: organism-based; design: dose 300 mg/kg, route intraperitoneal; conditions: in vivo
# [4] = Toxicity in Mus musculus ddY (mouse) assessed as mortality at 400 mg/kg, ip after 3 days; type: organism-based; design: dose 400 mg/kg, route intraperitoneal; conditions: in vivo
# [5] = Toxicity in Mus musculus ddY (mouse) assessed as mortality at 325 mg/kg, ip after 7 days; type: organism-based; design: dose 325 mg/kg, route intraperitoneal; conditions: in vivo
# [6] = Toxicity in Mus musculus ddY (mouse) assessed as mortality at 350 mg/kg, ip after 5 days; type: organism-based; design: dose 350 mg/kg, route intraperitoneal; conditions: in vivo
# [7] = Toxicity in Mus musculus ddY (mouse) assessed as mortality at 300 mg/kg, ip after 4 days; type: organism-based; design: dose 300 mg/kg, route intraperitoneal; conditions: in vivo
# [8] = Toxicity in Mus musculus ddY (mouse) assessed as mortality at 375 mg/kg, ip after 6 days; type: organism-based; design: dose 375 mg/kg, route intraperitoneal; conditions: in vivo
# [9] = Toxicity in Mus musculus ddY (mouse) assessed as mortality at 275 mg/kg, ip after 5 days; type: organism-based; design: dose 275 mg/kg, route intraperitoneal; conditions: in vivo
# [10] = tested on: Brassica rapa subsp. oleifera; assay: Growth inhibition of Brassica rapa subsp. oleifera assessed as root growth at 3 x 10^-5 M after 7 days; type: functional
# [11] = Toxicity in Mus musculus ddY (mouse) assessed as mortality at 400 mg/kg, ip after 2 days; type: organism-based; design: dose 400 mg/kg, route intraperitoneal; conditions: in vivo
# [12] = Toxicity in Mus musculus ddY (mouse) assessed as mortality at 300 mg/kg, ip after 3 days; type: organism-based; design: dose 300 mg/kg, route intraperitoneal; conditions: in vivo
# [13] = tested on: Brassica rapa subsp. oleifera; assay: Growth inhibition of Brassica rapa subsp. oleifera assessed as total chlorophyll level at 1 x 10^-4 M after 7 days; type: functional; design: scale not given: the % may be the effect or the level left
# [14] = Toxicity in Mus musculus ddY (mouse) assessed as mortality at 275 mg/kg, ip after 1 day; type: organism-based; design: dose 275 mg/kg, route intraperitoneal; conditions: in vivo
# [15] = Toxicity in Mus musculus ddY (mouse) assessed as mortality at 350 mg/kg, ip after 4 days; type: organism-based; design: dose 350 mg/kg, route intraperitoneal; conditions: in vivo
# [16] = tested on: Brassica rapa subsp. oleifera; assay: Growth inhibition of Brassica rapa subsp. oleifera assessed as chlorophyll b level at 3 x 10^-5 M after 7 days; type: functional; design: scale not given: the % may be the effect or the level left
# [17] = Toxicity in Mus musculus ddY (mouse) assessed as mortality at 325 mg/kg, ip after 3 days; type: organism-based; design: dose 325 mg/kg, route intraperitoneal; conditions: in vivo
# [18] = tested on: Brassica rapa subsp. oleifera; assay: Growth inhibition of Brassica rapa subsp. oleifera assessed as chlorophyll b level at 5 x 10^-5 M after 7 days; type: functional; design: scale not given: the % may be the effect or the level left
# [19] = Toxicity in Mus musculus ddY (mouse) assessed as mortality at 375 mg/kg, ip after 2 days; type: organism-based; design: dose 375 mg/kg, route intraperitoneal; conditions: in vivo
# [20] = tested on: Brassica rapa subsp. oleifera; assay: Growth inhibition of Brassica rapa subsp. oleifera assessed as total chlorophyll level at 3 x 10^-4 M after 7 days; type: functional; design: scale not given: the % may be the effect or the level left
# [21] = Toxicity in Mus musculus ddY (mouse) assessed as mortality at 300 mg/kg, ip after 6 days; type: organism-based; design: dose 300 mg/kg, route intraperitoneal; conditions: in vivo
# [22] = Toxicity in Mus musculus ddY (mouse) assessed as mortality at 325 mg/kg, ip after 4 days; type: organism-based; design: dose 325 mg/kg, route intraperitoneal; conditions: in vivo
# [23] = tested on: Brassica rapa subsp. oleifera; assay: Growth inhibition of Brassica rapa subsp. oleifera assessed as chlorophyll b level at 3 x 10^-4 M after 7 days; type: functional; design: scale not given: the % may be the effect or the level left
# [24] = tested on: Brassica rapa subsp. oleifera; assay: Growth inhibition of Brassica rapa subsp. oleifera assessed as root growth at 1 x 10^-4 M after 7 days; type: functional
# [25] = Toxicity in Mus musculus ddY (mouse) assessed as mortality at 400 mg/kg, ip after 1 day; type: organism-based; design: dose 400 mg/kg, route intraperitoneal; conditions: in vivo
# [26] = Toxicity in Mus musculus ddY (mouse) assessed as mortality at 400 mg/kg, ip after 4 days; type: organism-based; design: dose 400 mg/kg, route intraperitoneal; conditions: in vivo
# [27] = Toxicity in Mus musculus ddY (mouse) assessed as mortality at 400 mg/kg, ip after 5 days; type: organism-based; design: dose 400 mg/kg, route intraperitoneal; conditions: in vivo
# [28] = Toxicity in ip dosed Mus musculus ddY (mouse) assessed as mortality after 1 to 7 days; type: organism-based; conditions: in vivo
# [29] = Toxicity in Mus musculus ddY (mouse) assessed as mortality at 375 mg/kg, ip after 7 days; type: organism-based; design: dose 375 mg/kg, route intraperitoneal; conditions: in vivo
compound,measurement,setting,value
O=C1CSC(=S)N1 [RHODANINE],mortality at 120 h,[1],40%
same,mortality at 144 h,[2],0%
same,mortality at 24 h,[3],0%
same,mortality at 72 h,[4],100%
same,mortality at 168 h,[5],80%
same,mortality at 120 h,[6],80%
same,mortality at 96 h,[7],40%
same,mortality at 144 h,[8],100%
same,mortality at 120 h,[9],0%
same,Root length,[10],46 mm
same,mortality at 48 h,[11],100%
same,mortality at 72 h,[12],40%
same,Activity,[13],9.16%
same,mortality at 24 h,[14],0%
same,mortality at 96 h,[15],80%
same,Activity,[16],4.8%
same,mortality at 72 h,[17],80%
same,Activity,[18],5.08%
same,mortality at 48 h,[19],100%
same,Activity,[20],3.52%
same,mortality at 144 h,[21],40%
same,mortality at 96 h,[22],80%
same,Activity,[23],1.44%
same,Activity,[24],38.7 mm
same,mortality at 24 h,[25],80%
same,mortality at 96 h,[26],100%
same,mortality at 120 h,[27],100%
same,LD50,[28],311 mg/kg
same,mortality at 168 h,[29],100%

# From ChEMBL document CHEMBL3044763, “Inhibitory Activities of Rhodanine Derivatives on Plant Growth” (Biosci Biotechnol Biochem, 1996)
